This is an account of results in patent publication US8685928B2, “Antagonists of MUC1” (Dana-Farber Cancer Institute, Inc., priority 2010, dated 2014).

“Also recorded” adds a separate entry of the source. Positions of bridges follow the written chain, without caps; N, C: chain ends. Non-standard residues stand in square brackets, D forms with d. Residues, ends and D or L forms follow the SMILES beside them.

In one series the test system is A549 NSCLC. The conditions noted are these: human. The method, then: (§1) GO-203-2 and GO-203-2c were evaluated for ability to inhibit proliferation of murine and human carcinoma cell lines in vitro. Test compound (5 μM final concentration) was added to tumor cell cultures daily for 5 to 6 days, and cell viability was determined by trypan blue dye exclusion.
The test system of a further series is H1650 NSCLC. The conditions noted are these: human. The method, then:
as §1

For the next series, the system named is H1975 NSCLC. Conditions: human. The method, then: as §1
The test system of a further series is KW-807 LN NSCLC. Conditions: mouse. The method, then:
as §1

The subject of another series is KW-814 T6 NSCLC. Conditions: mouse. The method, then: as §1
A further series has as its system MCF-7 breast carcinoma. Conditions: human. The method, then: as §1
For series [1], the system named is MiaPaCa-2 pancreatic carcinoma. Conditions: human. The method, then: as §1
For a further series, the system named is ZR-75-1 breast carcinoma. The conditions noted are these: human. The method, then: as §1
Series [2] concerns human carcinoma cell lines. The method, then:
A series of in vitro and in vivo primary pharmacodynamic studies was conducted to assess efficacy and mechanism of action of GO-203-2c in human tumor cells.
as §1

Series [3] deals with ZR-75-1 human breast carcinoma xenograft. Put plainly: ZR-75-1 human breast carcinoma xenograft model, daily dosing for 21 days. It is filed as in vivo, mouse. The conditions noted are these: nu/nu mice. The method, then:
Efficacy of GO-203-2c was evaluated in a ZR-75-1 human breast carcinoma xenograft model. Female nu/nu mice (20-30 g; Charles River Laboratories, Wilmington, Mass.) were injected in the thigh with 5 million ZR-75-1 cells in Matrigel suspension. Mice also received subcutaneous 17-β-estradiol pellets. When tumors reached 100-200 mm^3 in size (approximately 12-15 days after implantation), mice were split into 4 groups of 5 mice and administered the following treatments daily for 21 days: phosphate-buffered saline (PBS) IP, 1 mg/kg GO-203-2c IV, 4 mg/kg GO-203-2c IV or 4 mg/kg control peptide CP-3 IV. Each animal was sacrificed when the tumor reached the predetermined endpoint size (˜2500 mm^3) or when the animals remained tumor-free for 180 days after implantation of the tumor cells.
On the technique in general: A xenograft is tissue or cells of one species grown in another, often human tumour cells in immunodeficient mice.

For series [4], the system named is MiaPaCa pancreatic carcinoma xenograft. The experiment in a line: MiaPaCa human pancreatic carcinoma xenograft model, GO-203-2c IV. Type of series: in vivo, mouse. The method, then: Male BALB/c nu/nu mice (8 weeks old; Charles River Laboratories, Wilmington, Mass.) were injected with 2.5 million MiaPaCa cells in the right thigh. When tumors reached a predetermined size (approximately 100 mm^3; 34 days after tumor cell implantation), mice (8 per group) were administered normal saline (control) or GO-203-2c (10 mg/kg) IV daily for 21 consecutive days. At the end of the treatment period, and following a one week interim period, animals that received GO-203-2c initially were administered an additional series of GO-203-2c daily injections.

Series [5] deals with PC3 prostate carcinoma xenograft. Put plainly: PC3 human prostate carcinoma xenograft model. It is filed as in vivo, mouse. Conditions: 7.5 mg/kg. The method, then: Male BALB/c nu/nu mice (6-7 weeks old; Charles River Laboratories, Wilmington, Mass.) were injected with 5 million A549 or PC3 cells in the right thigh. When tumors reached a predetermined size (approximately 80-100 mm^3; 10-16 days after tumor cell implantation), treatment was initiated as follows: Group 1, saline control (daily×21 days); Group 2, GO-203-2c (7.5 mg/kg, 5 days on/2 days off×3 cycles); Group 3, GO-203-2c (7.5 mg/kg, daily×21 days). In the A549 study, Group 3 animals that still had palpable/measurable tumors at the end of the 21-day treatment period were administered an additional 9 days of GO-203-2c treatment (Group 3′), with a one week interim period between treatments.

The target in the next series is T1, MUC1-CD (Homo sapiens, UniProt P15941).
T1 construct: Mucin 1 (MUC1) oncoprotein cytoplasmic domain (MUC1-CD); expressed in transfected cells; host or cells: HEK 293T
The experiment in a line: MUC1-CD oligomerization in HEK 293T cells transfected with GFP- and Flag-tag MUC1-CD. Type of series: cell-based. Conditions: HEK 293T cells transfected with human MUC1-CD. From the text: This finding is not surprising based on a requirement for the cysteine residues in the GO-203-2 binding domain (CQCRRKN) to be available for binding with cysteine residues on the corresponding binding domain of the MUC1-CD protein.

A short description of a further series: Hygroscopicity. It is filed as physicochemical. The conditions noted are these: drug substance powder. From the text:
There is no evidence to support an isolable hydrate. GO-203-2c HCl is hygroscopic, and precautions must be taken to avoid moisture uptake while handling the drug substance powder.

The nature of series [6]: Redox conversion in the presence of glutathione. Conditions: in the presence of low levels of glutathione. It is filed as physicochemical. The text has this: The drug substance is isolated as the disulfide, with the disulfide bond cyclizing the D-cys10 and D-cys12 residues. The synthesis, cleavage, oxidation and purification steps use standard solid phase procedures as described in the literature. A solution phase procedure for converting the peptide to the cyclic disulfide was developed. […] The biological properties of GO-203-2c will in part be governed by glutathione, which provides a significant portion of in vivo redox buffering capacity as mentioned above. Total glutathione levels approximate 20-30 μM in blood plasma, 0.5 mM in whole blood, and 5-10 mM intracellularly. […] Intracellular glutathione concentrations are sufficient to convert GO-203-2c (disulfide) to the GO-203-2 (dithiol) species that binds to the biological target, MUC1-CD.

The target in a further series is muscarinic M2 receptor (Homo sapiens, UniProt P08172). Put plainly: biochemical.
The mark [7] stands for this setting: 10 mg/kg IV daily for 21 consecutive days.

Sequence of muscarinic M2 receptor (P08172 whole entry): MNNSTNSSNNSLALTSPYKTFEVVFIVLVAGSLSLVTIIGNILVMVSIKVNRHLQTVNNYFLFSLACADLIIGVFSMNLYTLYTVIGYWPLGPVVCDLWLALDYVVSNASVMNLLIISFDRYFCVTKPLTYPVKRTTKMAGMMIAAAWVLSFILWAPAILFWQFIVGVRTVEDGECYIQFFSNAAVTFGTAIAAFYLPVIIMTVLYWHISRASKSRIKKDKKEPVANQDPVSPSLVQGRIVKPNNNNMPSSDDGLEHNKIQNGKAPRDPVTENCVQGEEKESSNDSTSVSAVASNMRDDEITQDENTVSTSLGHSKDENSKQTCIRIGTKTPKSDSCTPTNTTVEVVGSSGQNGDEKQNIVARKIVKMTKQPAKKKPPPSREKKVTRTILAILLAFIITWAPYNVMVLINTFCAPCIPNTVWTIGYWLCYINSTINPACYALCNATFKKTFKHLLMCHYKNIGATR
T1 sequence (P15941 1182-1255 limits assumed): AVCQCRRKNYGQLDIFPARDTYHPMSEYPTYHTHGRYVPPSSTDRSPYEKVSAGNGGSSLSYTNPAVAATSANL

The IC50 is the concentration at which inhibition is half-maximal. Higher therefore signals weaker potency in that assay. As to `CC(=O)N[C@H](CCCNC(=N)N)C(=O)N[C@H](CCCNC(=N)N)C(=O)N[C@H](CCCNC(=N)N)C(=O)N[C@H](CCCNC(=N)N)C(=O)N[C@H](CCCNC(=N)N)C(=O)N[C@H](CCCNC(=N)N)C(=O)N[C@H](CCCNC(=N)N)C(=O)N[C@H](CCCNC(=N)N)C(=O)N[C@H](CCCNC(=N)N)C(=O)N[C@@H]1CSSC[C@H](C(=O)N[C@H](CCCNC(=N)N)C(=O)N[C@H](CCCNC(=N)N)C(=O)N[C@H](CCCCN)C(=O)N[C@H](CC(N)=O)C(N)=O)NC(=O)[C@@H](CCC(N)=O)NC1=O` [GO-203-2c, Ac-(D)Arg-(D)Arg-(D)Arg-(D)Arg-(D)Arg-(D)Arg-(D)Arg-(D)Arg-(D)Arg-(D)Cys-(D)Gln-(D)Cys-(D)Arg-(D)Arg-(D)Lys-(D)Asn-NH2 disulfide] (Ac-[dR][dR][dR][dR][dR][dR][dR][dR][dR][dC][dQ][dC][dR][dR][dK][dN]-NH2; disulfide 10-12), the “% Inhibition of cell viability” value in the series with A549 NSCLC is on record as 73.1%; in the series on H1650 NSCLC, 89.0%; with H1975 NSCLC it was 46.2%; in the series on KW-807 LN NSCLC, 40.3%; in the series on KW-814 T6 NSCLC, 70.1%; with MCF-7 breast carcinoma, 87.7%. In addition, the “% Inhibition of cell viability” value is on record as 81.5% in series [1] and 43.6% in the series with ZR-75-1 breast carcinoma. For the same molecule, in series [2], the “50% inhibition (IC50) of proliferation” value was in the range of 5 to 11 µg/mL. The IC50 in [2] lay within 2 to 5 µM; at muscarinic M2 receptor, 3 to 8 µM. Besides, the Tumor response result in series [3] (1 mg/kg IV daily for 21 days) was “Partial tumor regression”; in [3] (4 mg/kg IV daily for 21 days), “complete regression of tumor growth”; in [4] (setting [7]), “significant arrest of tumor growth; also recorded: tumor growth delay”; in series [5] (5 days on/2 days off x 3 cycles), “complete growth arrest and regression; also recorded: tumor growth was immediately arrested and tumors regressed”; in series [5] (daily x 21 days) it was “complete growth arrest and regression; also recorded: tumor growth was immediately arrested and tumors regressed”. Further, the Mice tumor-free in series [4] (setting [7]) is 2 of 8 and Two out of 8. Further, the “Tumor response after re-dosing” value in series [4] (another cycle of daily IV 10 mg/kg from day 29) was “somewhat stabilized, with a very slow growth”. Moreover, the “Average tumor size on day 29” value in series [4] (six remaining mice after 7-day rest period, at start of re-dosing) is ~400 mm^3. For the same molecule, the “Inhibition of MUC1-CD oligomerization” value on MUC1-CD is on record as “inhibition”. Also, in the series “Hygroscopicity”, the Hygroscopicity entry was “hygroscopic”. Moreover, the “Conversion of disulfide to reduced (dithiol) form” value in series [6] is reported as “readily re-forms the reduced (dithiol) GO-203-2 peptide”.
